According to the supplement of paper PMC9013687:

How the values were obtained:
Danio rerio embryo [1] = conditions: exposure time: 2 dpf
Experimental: (§1)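 Zebrafish embryos (UFZ-OBI strain) were exposed from 2 hpf for 48 h (2 dpf) or 96 h (4 dpf) at 28 °C; spontaneous tail coiling was scored at 25 hpf. Morphological features from automated image analysis (FishInspector), heart rate and locomotor response were fitted with drc models. Quantal endpoints were dichotomised at 2.5 SD from controls and fitted with a log-logistic model; heart rate, pigmentation and STC were normalised to the replicate control mean. Betamethasone was tested as betamethasone dipropionate, diflorasone as diflorasone diacetate.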

Danio rerio embryo [2] = system: Danio rerio embryo
Experimental: as §1

Danio rerio embryo [3] = conditions: exposure time: 4 dpf
Experimental: as §1

Danio rerio embryo [4] = assay: EC50 Curvature_Increase; conditions: exposure time: 2 dpf
Experimental: as §1

Danio rerio embryo [5] = assay: EC50 Body length_Decrease
Experimental: as §1

Danio rerio embryo [6] = assay: EC50 Pericard size_Increase
Experimental: as §1

Danio rerio embryo [7] = assay: EC50 Eye-jaw distance_Decrease; conditions: exposure time: 4 dpf
Experimental: as §1

Danio rerio embryo [8] = assay: EC50 Otolith-eye distance_Decrease; conditions: exposure time: 4 dpf
Experimental: as §1

Danio rerio embryo [9] = assay: EC10 LMR dark; higher = less potent; conditions: exposure time: 4 dpf
Experimental: as §1

Danio rerio embryo [10] = assay: EC20 LMR dark; higher = less potent; conditions: exposure time: 4 dpf
Experimental: as §1

Danio rerio embryo [11] = assay: EC20 Any effect; higher = less potent
Experimental: as §1

Danio rerio embryo [12] = assay: EC10 Any effect; higher = less potent
Experimental: as §1

Danio rerio embryo [13] = assay: EC20 STC bell shape; higher = less potent; conditions: exposure time: 25 h
Experimental: as §1

Danio rerio embryo [14] = assay: EC10 STC bell shape; higher = less potent; conditions: exposure time: 25 h
Experimental: as §1

Danio rerio embryo [15] = assay: EC10 Curvature_Increase; higher = less potent; conditions: exposure time: 2 dpf
Experimental: as §1

Danio rerio embryo [16] = assay: EC10 LMR ligth decrease; higher = less potent; conditions: exposure time: 4 dpf
Experimental: as §1

Danio rerio embryo [17] = assay: EC20 LMR ligth decrease; higher = less potent; conditions: exposure time: 4 dpf
Experimental: as §1

Danio rerio embryo [18] = assay: EC20 Curvature_Increase; higher = less potent; conditions: exposure time: 2 dpf
Experimental: as §1

Danio rerio embryo [19] = assay: EC20 Body length_Decrease; higher = less potent
Experimental: as §1

Danio rerio embryo [20] = assay: EC10 Body length_Decrease; higher = less potent
Experimental: as §1

Danio rerio embryo [21] = assay: EC10 Pigmentation decrease; higher = less potent; conditions: exposure time: 2 dpf
Experimental: as §1

Danio rerio embryo [22] = assay: EC20 Pigmentation decrease; higher = less potent; conditions: exposure time: 2 dpf
Experimental: as §1

Danio rerio embryo [23] = assay: EC20 Pericard size_Increase; higher = less potent
Experimental: as §1

Danio rerio embryo [24] = assay: EC10 Pericard size_Increase; higher = less potent
Experimental: as §1

Danio rerio embryo [25] = assay: EC20 Eye-jaw distance_Decrease; higher = less potent; conditions: exposure time: 4 dpf
Experimental: as §1

Danio rerio embryo [26] = assay: EC10 Eye-jaw distance_Decrease; higher = less potent; conditions: exposure time: 4 dpf
Experimental: as §1

Danio rerio embryo [27] = assay: EC20 Otolith-eye distance_Decrease; higher = less potent; conditions: exposure time: 4 dpf
Experimental: as §1

Danio rerio embryo [28] = assay: EC10 Otolith-eye distance_Decrease; higher = less potent; conditions: exposure time: 4 dpf
Experimental: as §1

Danio rerio embryo [29] = assay: spontaneous tail coiling frequency (coils/min/embryo); higher = more spontaneous movement; conditions: 25 hpf
Experimental: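 Spontaneous tail coilings of zebrafish embryos exposed from 2 hpf were recorded at 24-25 hpf in 1-min videos and detected by a KNIME workflow from grey-value variance. Betamethasone was tested as the dipropionate, diflorasone as the diacetate.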

O=C(O)Cc1ccccc1Nc1c(Cl)cccc1Cl [Diclofenac]
Conditions	EC10 Curvature Increase [µM]	EC10 Eye-jaw distance Decrease [µM]	EC10 LMR dark [µM]	EC10 LMR ligth decrease [µM]	EC10 Otolith-eye distance Decrease [µM]	EC10 Pigmentation decrease [µM]	EC10 STC bell shape [µM]	EC20 Curvature Increase [µM]	EC20 Eye-jaw distance Decrease [µM]	EC20 LMR dark [µM]	EC20 LMR ligth decrease [µM]	EC20 Otolith-eye distance Decrease [µM]	EC20 Pigmentation decrease [µM]	EC20 STC bell shape [µM]	EC50 Curvature Increase [µM]	EC50 Eye-jaw distance Decrease [µM]	EC50 LMR dark [µM]	EC50 Otolith-eye distance Decrease [µM]	EC50 Pigmentation decrease [µM]
Danio rerio embryo [1]	–	–	–	–	–	–	–	–	–	–	–	–	–	–	–	–	–	–	18.8
Danio rerio embryo [3]	–	–	–	–	–	–	–	–	–	–	–	–	–	–	–	–	8.07	–	–
Danio rerio embryo [4]	–	–	–	–	–	–	–	–	–	–	–	–	–	–	13.2	–	–	–	–
Danio rerio embryo [7]	–	–	–	–	–	–	–	–	–	–	–	–	–	–	–	10.1	–	–	–
Danio rerio embryo [8]	–	–	–	–	–	–	–	–	–	–	–	–	–	–	–	–	–	9.6	–
Danio rerio embryo [9]	–	–	6.21	–	–	–	–	–	–	–	–	–	–	–	–	–	–	–	–
Danio rerio embryo [10]	–	–	–	–	–	–	–	–	–	6.84	–	–	–	–	–	–	–	–	–
Danio rerio embryo [13]	–	–	–	–	–	–	–	–	–	–	–	–	–	37.8	–	–	–	–	–
Danio rerio embryo [14]	–	–	–	–	–	–	32.4	–	–	–	–	–	–	–	–	–	–	–	–
Danio rerio embryo [15]	11.5	–	–	–	–	–	–	–	–	–	–	–	–	–	–	–	–	–	–
Danio rerio embryo [16]	–	–	–	5.85	–	–	–	–	–	–	–	–	–	–	–	–	–	–	–
Danio rerio embryo [17]	–	–	–	–	–	–	–	–	–	–	6.64	–	–	–	–	–	–	–	–
Danio rerio embryo [18]	–	–	–	–	–	–	–	12.1	–	–	–	–	–	–	–	–	–	–	–
Danio rerio embryo [21]	–	–	–	–	–	10.9	–	–	–	–	–	–	–	–	–	–	–	–	–
Danio rerio embryo [22]	–	–	–	–	–	–	–	–	–	–	–	–	13.2	–	–	–	–	–	–
Danio rerio embryo [25]	–	–	–	–	–	–	–	–	6.88	–	–	–	–	–	–	–	–	–	–
Danio rerio embryo [26]	–	5.49	–	–	–	–	–	–	–	–	–	–	–	–	–	–	–	–	–
Danio rerio embryo [27]	–	–	–	–	–	–	–	–	–	–	–	6.89	–	–	–	–	–	–	–
Danio rerio embryo [28]	–	–	–	–	5.67	–	–	–	–	–	–	–	–	–	–	–	–	–	–

Conditions	EC10 Any effect [µM]	EC10 Body length Decrease [µM]	EC10 Pericard size Increase [µM]	EC20 Any effect [µM]	EC20 Body length Decrease [µM]	EC20 Pericard size Increase [µM]	EC50 Any effect [µM]	EC50 Body length Decrease [µM]	EC50 LMR ligth decrease [µM]	EC50 Pericard size Increase [µM]	EC50 STC bell shape [µM]	spontaneous tail coiling frequency
Danio rerio embryo [2], exposure time: 2 dpf	–	–	–	–	–	–	12.4	–	–	–	–	–
Danio rerio embryo [2], exposure time: 4 dpf	–	–	–	–	–	–	8.22	–	8.24	–	–	–
Danio rerio embryo [2], exposure time: 25 h	–	–	–	–	–	–	–	–	–	–	50.9	–
Danio rerio embryo [5], exposure time: 2 dpf	–	–	–	–	–	–	–	14.2	–	–	–	–
Danio rerio embryo [5], exposure time: 4 dpf	–	–	–	–	–	–	–	8.33	–	–	–	–
Danio rerio embryo [6], exposure time: 2 dpf	–	–	–	–	–	–	–	–	–	12.2	–	–
Danio rerio embryo [6], exposure time: 4 dpf	–	–	–	–	–	–	–	–	–	8.32	–	–
Danio rerio embryo [11], exposure time: 2 dpf	–	–	–	11.3	–	–	–	–	–	–	–	–
Danio rerio embryo [11], exposure time: 4 dpf	–	–	–	5.45	–	–	–	–	–	–	–	–
Danio rerio embryo [12], exposure time: 2 dpf	10.7	–	–	–	–	–	–	–	–	–	–	–
Danio rerio embryo [12], exposure time: 4 dpf	4.28	–	–	–	–	–	–	–	–	–	–	–
Danio rerio embryo [19], exposure time: 2 dpf	–	–	–	–	12.1	–	–	–	–	–	–	–
Danio rerio embryo [19], exposure time: 4 dpf	–	–	–	–	7.11	–	–	–	–	–	–	–
Danio rerio embryo [20], exposure time: 2 dpf	–	11.1	–	–	–	–	–	–	–	–	–	–
Danio rerio embryo [20], exposure time: 4 dpf	–	6.47	–	–	–	–	–	–	–	–	–	–
Danio rerio embryo [23], exposure time: 2 dpf	–	–	–	–	–	11.1	–	–	–	–	–	–
Danio rerio embryo [23], exposure time: 4 dpf	–	–	–	–	–	6.72	–	–	–	–	–	–
Danio rerio embryo [24], exposure time: 2 dpf	–	–	10.5	–	–	–	–	–	–	–	–	–
Danio rerio embryo [24], exposure time: 4 dpf	–	–	5.93	–	–	–	–	–	–	–	–	–
Danio rerio embryo [29], 1 µM	–	–	–	–	–	–	–	–	–	–	–	2.73
Danio rerio embryo [29], 2 µM	–	–	–	–	–	–	–	–	–	–	–	2.93
Danio rerio embryo [29], 3.123 µM	–	–	–	–	–	–	–	–	–	–	–	2.81
Danio rerio embryo [29], 4 µM	–	–	–	–	–	–	–	–	–	–	–	2.63
Danio rerio embryo [29], 5.12 µM	–	–	–	–	–	–	–	–	–	–	–	2.43
Danio rerio embryo [29], 6.25 µM	–	–	–	–	–	–	–	–	–	–	–	2.41
Danio rerio embryo [29], 6.4 µM	–	–	–	–	–	–	–	–	–	–	–	2.64
Danio rerio embryo [29], 8 µM	–	–	–	–	–	–	–	–	–	–	–	3.93
Danio rerio embryo [29], 10 µM	–	–	–	–	–	–	–	–	–	–	–	3.72
Danio rerio embryo [29], 12.5 µM	–	–	–	–	–	–	–	–	–	–	–	3.42
Danio rerio embryo [29], 15.6 µM	–	–	–	–	–	–	–	–	–	–	–	4.34
Danio rerio embryo [29], 25 µM	–	–	–	–	–	–	–	–	–	–	–	4.62
Danio rerio embryo [29], 31.25 µM	–	–	–	–	–	–	–	–	–	–	–	3.8
Danio rerio embryo [29], 50 µM	–	–	–	–	–	–	–	–	–	–	–	2.15
Danio rerio embryo [29], 62.5 µM	–	–	–	–	–	–	–	–	–	–	–	1.4
Danio rerio embryo [29], 100 µM	–	–	–	–	–	–	–	–	–	–	–	0
Danio rerio embryo [29], 150 µM	–	–	–	–	–	–	–	–	–	–	–	0
